The source made the active and inactive calls. The calls are words filed in the database; no cut-off is given here.
Key:
Cyclooxygenase = target: T1, Cyclooxygenase (Rattus norvegicus, UniProt P35355+Q63921); settings: rbl-1
T1 sequence (P35355 whole entry): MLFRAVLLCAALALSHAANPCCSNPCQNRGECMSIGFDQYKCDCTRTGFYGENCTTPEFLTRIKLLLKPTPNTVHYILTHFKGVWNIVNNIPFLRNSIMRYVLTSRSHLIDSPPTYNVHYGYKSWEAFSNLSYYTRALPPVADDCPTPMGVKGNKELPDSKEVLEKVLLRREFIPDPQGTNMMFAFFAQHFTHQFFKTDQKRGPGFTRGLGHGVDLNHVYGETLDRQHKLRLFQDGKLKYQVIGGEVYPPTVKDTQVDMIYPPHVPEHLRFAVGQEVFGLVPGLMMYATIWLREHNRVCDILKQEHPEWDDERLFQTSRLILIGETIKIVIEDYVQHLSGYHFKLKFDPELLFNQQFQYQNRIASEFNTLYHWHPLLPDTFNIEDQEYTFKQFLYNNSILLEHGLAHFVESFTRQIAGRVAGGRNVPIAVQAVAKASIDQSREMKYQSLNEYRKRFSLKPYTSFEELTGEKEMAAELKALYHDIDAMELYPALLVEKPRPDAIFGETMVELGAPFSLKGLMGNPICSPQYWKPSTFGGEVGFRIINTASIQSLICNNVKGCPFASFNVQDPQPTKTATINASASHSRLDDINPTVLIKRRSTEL
T1 sequence (Q63921 whole entry): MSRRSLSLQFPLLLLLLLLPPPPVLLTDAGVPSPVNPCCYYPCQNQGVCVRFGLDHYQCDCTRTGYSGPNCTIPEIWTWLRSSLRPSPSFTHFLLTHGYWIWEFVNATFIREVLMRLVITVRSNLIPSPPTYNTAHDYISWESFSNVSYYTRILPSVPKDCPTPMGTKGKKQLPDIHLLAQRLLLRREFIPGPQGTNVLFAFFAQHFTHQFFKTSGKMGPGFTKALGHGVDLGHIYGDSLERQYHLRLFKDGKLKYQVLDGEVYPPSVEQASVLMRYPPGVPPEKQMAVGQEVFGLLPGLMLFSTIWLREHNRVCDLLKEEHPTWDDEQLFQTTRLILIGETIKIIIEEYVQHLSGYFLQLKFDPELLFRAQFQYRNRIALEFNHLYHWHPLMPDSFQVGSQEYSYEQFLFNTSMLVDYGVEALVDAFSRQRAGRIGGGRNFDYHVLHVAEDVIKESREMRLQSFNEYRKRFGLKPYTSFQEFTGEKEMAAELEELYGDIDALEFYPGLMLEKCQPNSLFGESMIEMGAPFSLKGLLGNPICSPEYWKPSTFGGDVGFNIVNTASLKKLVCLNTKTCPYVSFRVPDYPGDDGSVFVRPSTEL
Description: Inhibition of prostaglandin G/H synthase in intact rat basophilic leukemia cells stimulated with the calcium ionophore A-23187

[1] = target: T2, Polyunsaturated fatty acid 5-lipoxygenase (Rattus norvegicus, UniProt P12527)
T2 sequence (P12527 whole entry): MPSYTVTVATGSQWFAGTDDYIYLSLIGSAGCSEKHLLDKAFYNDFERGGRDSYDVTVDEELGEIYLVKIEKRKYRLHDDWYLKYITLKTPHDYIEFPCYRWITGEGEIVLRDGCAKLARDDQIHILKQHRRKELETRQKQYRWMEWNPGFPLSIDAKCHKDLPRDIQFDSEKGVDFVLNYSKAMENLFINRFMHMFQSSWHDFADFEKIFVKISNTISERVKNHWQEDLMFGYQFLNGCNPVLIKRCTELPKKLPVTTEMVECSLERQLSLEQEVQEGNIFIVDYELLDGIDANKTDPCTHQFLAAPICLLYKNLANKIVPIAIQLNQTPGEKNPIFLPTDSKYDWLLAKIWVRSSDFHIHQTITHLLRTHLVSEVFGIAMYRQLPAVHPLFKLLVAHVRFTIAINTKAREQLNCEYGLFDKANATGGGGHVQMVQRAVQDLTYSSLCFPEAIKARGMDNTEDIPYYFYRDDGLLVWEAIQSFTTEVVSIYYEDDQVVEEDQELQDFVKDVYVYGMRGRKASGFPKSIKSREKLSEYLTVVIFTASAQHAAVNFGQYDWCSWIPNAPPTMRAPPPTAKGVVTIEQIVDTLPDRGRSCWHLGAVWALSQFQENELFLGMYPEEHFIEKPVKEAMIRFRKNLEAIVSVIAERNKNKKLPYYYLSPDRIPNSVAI

Rattus norvegicus [2] = assay: Inhibition of rat carrageenan induced foot-pad edema at a dose of 30 mg/kg on peroral administration; N=Inactive; type: functional, organism-based; parameters: dose 30 mg/kg
Rattus norvegicus [3] = assay: Inhibition of rat carrageenan induced foot-pad edema at a dose of 30 mg/kg on peroral administration; settings: po, read-out: Inhibition
Rattus norvegicus [4] = assay: 40% inhibition of induced edema in the rat mycobacterium foot-pad edema test; type: functional
Rattus norvegicus [5] = assay: Inhibition of rat carrageenan induced foot-pad edema at a dose of 10 mg/kg on peroral administration; settings: po, read-out: Inhibition
[6] = target: T3, Polyunsaturated fatty acid 5-lipoxygenase (Rattus norvegicus) (UniProt P12527); assay: Inhibitory activity at 10 uM against 5-lipoxygenase in intact rat basophilic leukemia cells stimulated with the calcium ionophore A-23187; type: cell-based; settings: RBL-1
T3 sequence (whole entry): T2 sequence (P12527 whole entry)

Rattus norvegicus [7] = assay: 40% inhibition of induced edema in the rat mycobacterium foot-pad edema test; N=Inactive; type: functional, organism-based
Rattus norvegicus [8] = assay: 40% inhibition of induced edema in the rat mycobacterium foot-pad edema test; Inactive(N)= <30% inhibition at a dose of 10 mg/kg po; type: functional, organism-based; parameters: dose 10 mg/kg
Rattus norvegicus [9] = assay: Inhibition of rat carrageenan induced foot-pad edema at a dose of 30 mg/kg on peroral administration; Inactive(N)= <25% inhibition at a dose of 30 mg/kg po; type: functional, organism-based

SMILES | IC50 (Cyclooxygenase) | IC50 [1] | inhibition (Rattus norvegicus [2]) | inhibition in vivo at 30 mg/kg (Rattus norvegicus [3]) | ID40 (Rattus norvegicus [4]) | inhibition in vivo at 10 mg/kg (Rattus norvegicus [5]) | also measured
C/C(=C1/SC(NC#N)=NC1=O)c1cc(C(C)(C)C)c(O)c(C(C)(C)C)c1 | 5100 nM | 1200 nM | inactive |  |  |  | 
CC(C)(C)c1cc(/C=C2\SC(=O)NC2=O)cc(C(C)(C)C)c1 | 4600 nM | 3300 nM | inactive |  |  |  | 
CC(C)(C)c1cc(/C=C2\CCOC2=O)cc(C(C)(C)C)c1O |  |  |  | 28% | 3.7 mg/kg | 17% | 
C/C(=C1/SC(N=C(N)N)=NC1=O)c1cc(C(C)(C)C)c(O)c(C(C)(C)C)c1 | 1900 nM | 1600 nM | inactive |  |  |  | 
CC(C)(C)c1cc(/C=C2\SC(NCCCC(=O)O)=NC2=O)cc(C(C)(C)C)c1O |  |  |  |  |  |  | inhibition [6]: 53%
CC(C)(C)c1cc(/C=C2\SC(=N)NC2=O)cc(C(C)(C)C)c1O.CS(=O)(=O)O [DARBUFELONE MESYLATE] | 390 nM | 770 nM |  | 61% | 0.6 mg/kg | 52% | 
CC(C)(C)c1cc(/C=C2\OC(=S)NC2=O)cc(C(C)(C)C)c1O | 1700 nM | 840 nM |  | 40% | 12.4 mg/kg | 32% | 
CN(O)C1=NC(=O)/C(=C/c2cc(C(C)(C)C)c(O)c(C(C)(C)C)c2)S1 [listing 1 of 2 here] |  |  | inactive |  |  |  | 
CC(C)(C)c1cc(/C=C2\SC(N=C(N)N)=NC2=O)cc(C(C)(C)C)c1O | 83 nM | 910 nM |  | 40% | 2.2 mg/kg | 34% | 
CSC1=NC(=O)/C(=C/c2cc(C(C)(C)C)c(O)c(C(C)(C)C)c2)S1 | 600 nM | 650 nM |  | 47% |  | 36% | ID40 (Rattus norvegicus [7]): inactive
CC(C)(C)c1cc(/C=C2\OC(NC#N)=NC2=O)cc(C(C)(C)C)c1O | 1100 nM | 2600 nM | inactive |  |  |  | 
CN(O)C1=NC(=O)/C(=C/c2cc(C(C)(C)C)c(O)c(C(C)(C)C)c2)S1 [listing 2 of 2 here] | 10000 nM | 7300 nM |  |  |  |  | 
CC(C)(C)c1cc(/C=C2\OC(N=C(N)N)=NC2=O)cc(C(C)(C)C)c1O.CS(=O)(=O)O | 340 nM | 1200 nM |  | 48% | 5.7 mg/kg | 33% | 
CC(C)c1cc(/C=C2\SC(=O)NC2=O)cc(C(C)C)c1O | 820 nM | 220 nM |  |  |  |  | ID40 (Rattus norvegicus [7]): inactive
CON1CC/C(=C\c2cc(C(C)(C)C)c(O)c(C(C)(C)C)c2)C1=O [E-5110] |  |  |  |  | 1.9 mg/kg |  | 
CN1C(NC#N)=NC(=O)/C1=C/c1cc(C(C)(C)C)c(O)c(C(C)(C)C)c1 | 3500 nM | 700 nM | inactive |  |  |  | 
O=C1NC(=O)/C(=C/c2cc(-c3ccccc3)c(O)c(-c3ccccc3)c2)S1 | 9600 nM | 160 nM |  | 41% |  | 11% | ID40 (Rattus norvegicus [8]): inactive
CC(C)(C)c1cc(/C=C2\SC(NO)=NC2=O)cc(C(C)(C)C)c1O | 800 nM | 3700 nM | inactive |  |  |  | 
CC(C)(C)c1cc(/C=C2\SC(=O)NC2=O)cc(C(C)(C)C)c1O | 350 nM |  |  | 59% | 2 mg/kg | 54% | 
CC(C)(C)c1cc(/C=C2\OC(=O)NC2=O)cc(C(C)(C)C)c1O | 650 nM | 2800 nM |  | 51% | 3.7 mg/kg | 35% | 
CC(C)(C)c1cc(/C=C2\CC(=S)NC2=O)cc(C(C)(C)C)c1O | 2400 nM | 1700 nM |  | 39% |  | 19% | ID40 (Rattus norvegicus [8]): inactive
CC(C)(C)c1cc(/C=C2\SC(NC#N)=NC2=O)cc(C(C)(C)C)c1O | 160 nM | 630 nM |  | 49% |  | 29% | ID40 (Rattus norvegicus [7]): inactive
CN(O)C1=NC(=O)/C(=C/c2cc(C(C)(C)C)c(O)c(C(C)(C)C)c2)S1.Cl | 330 nM | 1700 nM |  |  | 6.2 mg/kg |  | 
CN1C(=S)NC(=O)/C1=C/c1cc(C(C)(C)C)c(O)c(C(C)(C)C)c1 | 790 nM | 170 nM | inactive |  |  |  | 
CC(C)(C)c1cc(/C=C2\SC(=S)NC2=O)cc(C(C)(C)C)c1O | 12 nM | 380 nM |  | 36% |  | 32% | 
CN1C(=O)NC(=O)/C1=C/c1cc(C(C)(C)C)c(O)c(C(C)(C)C)c1 | 4600 nM | 780 nM |  |  |  |  | inhibition (Rattus norvegicus [9]): inactive
CN1C(NC(=N)N)=NC(=O)/C1=C/c1cc(C(C)(C)C)c(O)c(C(C)(C)C)c1 | 2100 nM | 1300 nM | inactive |  |  |  | 
CN(C)CCNC1=NC(=O)/C(=C/c2cc(C(C)(C)C)c(O)c(C(C)(C)C)c2)S1 |  |  |  |  |  |  | inhibition [6]: 79%
C/C(=C1/SC(=S)NC1=O)c1cc(C(C)(C)C)c(O)c(C(C)(C)C)c1 | 4500 nM | 2300 nM |  |  |  |  | inhibition (Rattus norvegicus [9]): inactive

Reference: ChEMBL document CHEMBL1127341, “Synthesis and biological evaluation of 5-[[3,5-bis(1,1-dimethylethyl)- 4-hydroxyphenyl]methylene]oxazoles, -thiazoles, and -imidazoles: novel dual 5-lipoxygenase and cyclooxygenase inhibitors with antiinflammatory activity” (J Med Chem, 1994)
